The text below walks through data of ChEMBL document CHEMBL6078649, “Discovery of Chalcone Derivatives as Bifunctional Molecules with Anti-SARS-CoV-2 and Anti-inflammatory Activities” (J Nat Prod, 2024).

The test concerns SARS-CoV-2. The test is described as follows: Antiviral activity against SARS-CoV-2 infected in human Huh-7 cells harboring viral replicon/EGFP/Neo genes assessed as inhibition of EGFP expression incubated for 24 hrs. The note with it: Severe acute respiratory syndrome coronavirus 2, Huh-7, 24 h. It counts as functional, organism-based. Background: In antiviral work, replicon cells carry a viral genome segment that copies itself.

Each structure is given as a SMILES string. pEC50: −log10 of the molar value.

Broadly, the pEC50 is the negative decadic logarithm of the EC50, by convention in mol/L.

Consider `O=C(/C=C/c1cc(O)c(O)c(O)c1)c1ccc(F)cc1`, for which the negative logarithm of the EC50 (pEC50) was 4.93. Turning to `CC(=O)Oc1c(Cl)c(/C=C/C(=O)c2ccc(F)cc2)c(Cl)c(OC(C)=O)c1OC(C)=O`, the negative logarithm of the EC50 (pEC50) is 4.39.

`O=C(/C=C/c1c(Cl)c(O)c(O)c(O)c1Cl)c1ccc(F)cc1`: the pEC50 was 4.70. Turning to `O=C(CCc1cc(O)c(O)c(O)c1)c1ccc(F)cc1`, the pEC50 is 4.49.
